For series [1], the system named is patients with metastatic lung adenocarcinoma with EGFR mutations. Particulars: cited from earlier work.
Series [2] has as its system Asian patients with advanced non-small-cell lung cancer harboring EGFR mutations. Particulars: cited from earlier work.
Series [3] concerns patients with EGFR mutation-positive non-small-cell lung cancer. The note with it: LUX-Lung 7, cited from earlier work.
Series [4] deals with patients with non-small cell lung cancer (NSCLC). The note with it: afatinib 40 mg/day for 90 days, cited from earlier work.
Series [5] relates to skin and subcutaneous tissue. The note with it: EMA marketing authorization documentation; cited from earlier work.
A further series has as its system skin. Particulars: skin reactions during treatment with sunitinib and sorafenib; cited from earlier work.
The test system of series [6] is appropriate patient population. The note with it: approximately; when given to an appropriate patient population; cited from earlier work.
In series [7] the test system is patients with metastatic lung cancer. Description: Retrospective study of prophylactic dermatological treatment with polydatin cream on cutaneous toxicity of afatinib (NCI-CTCAE v3.0 grading). Particulars: for Incidence of skin rash, All grades (%) / Incidence of skin rash, Grade 1 (%) / Incidence of skin rash, Grade 2 (%) / Incidence of skin rash, Grade 3 (%): 1.5% polydatin cream twice a day. The series is classed as in vivo. An excerpt: The main exclusion criteria were: poor patient compliance; allergy or sensitivity to polydatin; current or previous treatment with topical or oral antioxidant drugs; concomitant skin diseases.
The retrospective study was specifically designed to evaluate a proactive management of EGFR-mediated skin toxicity, in order to minimize the possibility of having to reduce the dose or suspend the antitumor treatment.
Patients were monitored every 7 days for the first month, and thereafter every 20 days or when needed.
Data about severity, duration and management of cutaneous toxicity induced by TKI were analyzed in all patients treated using a descriptive statistic.
The scale used for the classification of cutaneous toxicities induced by EGFR-targeted therapies was the classification scale of the Common Terminology Criteria for Adverse Events of the National Cancer Institute.

The mark [8] stands for this setting: of the 160 (afatinib) / 159 (gefitinib) patients treated.
Setting [9] is: term used for a group of adverse events.
Where [10] appears, read: Cutaneous rash, all patients (n = 34), afatinib 40 mg/day.

Entries after “also recorded” stand apart in the source; their conditions may differ.

Regarding `CN(C)C/C=C/C(=O)Nc1cc2c(Nc3ccc(F)c(Cl)c3)ncnc2cc1O[C@H]1CCOC1` [Afatinib, afatinib], the “treatment discontinued due to treatment-related adverse events” value in series [1] (LUX LUNG 3, % of patients) was 8%. Besides, the “incidence of rash grade 1-2” value in series [1] (LUX LUNG 3) is reported as 72.9%. In series [1] (LUX-Lung 3 (LL3)), the “Asthenia, All grades” value is reported as 17.5%; the “Asthenia, Grade 3” value is 1.3%; the “Asthenia, Grade 4” value is listed as 0%; the “Diarrhea, All grades” value is 95.2%. In addition, in series [1] (LUX-Lung 3 (LL3)), the “Diarrhea, Grade 3” value is 14.4%; the “Diarrhea, Grade 4” value was 0%; the “Dry skin, All grades” value was 29.3/NA %; the “Dry skin, Grade 3” value is listed as 0.4/NA %. Also, in series [1] (LUX-Lung 3 (LL3)), the “Dry skin, Grade 4” value is on record as 0%; the “Hitching, All grades” value was 18.8%; the “Hitching, Grade 3” value was 0.4/0.4%; the “Hitching, Grade 4” value is listed as 0%. In addition, in series [1] (LUX-Lung 3 (LL3)), the “Nausea, All grades” value is 17.9%; the “Nausea, Grade 3” value is listed as 0.9%; the “Nausea, Grade 4” value is 0%; the “Paronychia/periungual problems, All grades” value is 56.8%. In series [1] (LUX-Lung 3 (LL3)), the “Paronychia/periungual problems, Grade 3” value is reported as 11.4%; the “Paronychia/periungual problems, Grade 4” value is listed as 0%; the “Rash/acne, All grades” value was 89.1%; the “Rash/acne, Grade 3” value is 16.2%. Also, in series [1] (LUX-Lung 3 (LL3)), the “Rash/acne, Grade 4” value is given as 0.0%; the “Reduction of appetite, All grades” value is 20.5%; the “Reduction of appetite, Grade 3” value was 3.1%; the “Reduction of appetite, Grade 4” value is listed as 0%. Besides, in series [1] (LUX-Lung 3 (LL3)), the “Stomatitis/mucositis, All grades” value is recorded as 72.1%; the “Stomatitis/mucositis, Grade 3” value is 8.37%; the “Stomatitis/mucositis, Grade 4” value is 0.4%; the “Vomiting, All grades” value is listed as 17.0%. Further, in series [1] (LUX-Lung 3 (LL3)), the “Vomiting, Grade 3” value is recorded as 3.1% and the “Vomiting, Grade 4” value was 0%. In series [2] (LUX LUNG 6), the “incidence of rash grade 1-2” value is 66.1% and the “rate of treatment discontinuation due to adverse events” value is given as 2.1%. Further, in series [2] (LUX-Lung 6 (LL6)), the “Asthenia, All grades” value is 10.0%; the “Asthenia, Grade 3” value is 0.4%; the “Asthenia, Grade 4” value is on record as 0%; the “Diarrhea, All grades” value is reported as 88.3%. Also, in series [2] (LUX-Lung 6 (LL6)), the “Diarrhea, Grade 3” value was 5.4%; the “Diarrhea, Grade 4” value is reported as 0%; the “Hitching, All grades” value was 10.9%; the “Hitching, Grade 3” value is 0.4/0.4%. Moreover, in series [2] (LUX-Lung 6 (LL6)), the “Hitching, Grade 4” value was 0%; the “Nausea, All grades” value is recorded as 7.5%; the “Nausea, Grade 3” value is recorded as 0.0%; the “Nausea, Grade 4” value is 0%. For the same compound, in series [2] (LUX-Lung 6 (LL6)), the “Paronychia/periungual problems, All grades” value is listed as 32.6%; the “Paronychia/periungual problems, Grade 3” value is 0.0%; the “Paronychia/periungual problems, Grade 4” value is on record as 0%; the “Rash/acne, All grades” value is 80.8%. Moreover, in series [2] (LUX-Lung 6 (LL6)), the “Rash/acne, Grade 3” value is 14.2%; the “Rash/acne, Grade 4” value is listed as 0.4%; the “Reduction of appetite, All grades” value is reported as 10.0%; the “Reduction of appetite, Grade 3” value was 1.3%. For the same compound, in series [2] (LUX-Lung 6 (LL6)), the “Reduction of appetite, Grade 4” value is given as 0%; the “Stomatitis/mucositis, All grades” value is listed as 51.9%; the “Stomatitis/mucositis, Grade 3” value was 5.4%; the “Stomatitis/mucositis, Grade 4” value was 0.0%. Also, in series [2] (LUX-Lung 6 (LL6)), the “Vomiting, All grades” value is 9.6%; the “Vomiting, Grade 3” value is on record as 0.8%; the “Vomiting, Grade 4” value is given as 0%. In addition, the “ALT increased, All” value in series [3] (ALT, alanine aminotransferase) is 9.4%. The “AST increased, All” value in series [3] (AST, aspartate aminotransferase) is reported as 6.3%. In addition, in series [3] (afatinib 40 mg/day or gefitinib 250 mg/day), the “Diarrhea, All” value was 90.0%. For the same compound, in series [3], the “Alopecia, All” value was 10.6%; the “Itching, All” value is on record as 23.1%; the “Nausea, All” value was 16.3%; the “Nausea, Grade 3” value was 1.3%. In series [3], the “Reduction of appetite, All” value is reported as 16.3%; the “Reduction of appetite, Grade 3” value is 0.6%; the “Vomiting, All” value is recorded as 10.6%; the “Xerosis, All” value is on record as 32.5%. Further, in series [3], the “grade 3 or 4 diarrhea” value was 13% and the “grade 3 or 4 rash or acne” value was 9%. Also, in series [3] (setting [8]), the “grade 3 or 4 diarrhea, number of patients” value is 20 patients and the “grade 3 or 4 rash or acne, number of patients” value is 15 patients. Moreover, in series [3] (setting [9]), the “Asthenia*, All” value is listed as 20.6%; the “Asthenia*, Grade 3” value is 5.6%; the “Paronychia*, All” value was 55.6%; the “Paronychia*, Grade 3” value is on record as 1.9%. Further, in series [3] (setting [9]), the “Rash/acne*, All” value was 88.8%; the “Rash/acne*, Grade 3” value is 9.4%; the “Stomatitis*, All” value was 64.4%; the “Stomatitis*, Grade 3” value is 4.4%. In addition, the “incidence of rash of any grade” value in series [4] (control arm (no treatment)) was 75.6%. In series [4] (control arm), the “incidence of rash grade ≥ 2” value was 35.6%. For the same compound, in series [5], the “frequency of acneiform dermatitis” value is given as “very common ("very common" (frequency ≥ 1/10))”, the “frequency of dryness of the skin (xerosis)” value is recorded as “very common ("very common" (frequency ≥ 1/10))”, the frequency of itching result is on record as “very common ("very common" (frequency ≥ 1/10))” and the “frequency of palmoplantar erythrodysesthesia syndrome” value is on record as “common ("common" (frequency ≥ 1/100 e < 1/10))”. Further, in series [5], the “frequency of skin rash” value was “very common ("very common" (frequency ≥ 1/10))”.
In the case of `CCN(CC)CCNC(=O)c1c(C)[nH]c(/C=C2\C(=O)Nc3ccc(F)cc32)c1C` [sunitinib], in the series with skin, the alopecia is on record as 15%, the folliculitis is 38%, the “hand-foot syndrome (palmopantar erythrodysesthesia)” value is 42% and the nail alterations is 14%. Moreover, in the series on skin, the pruritus is 36%, the skin rash was 46% and the stomatitis is on record as 16%.
With `CNC(=O)c1cc(Oc2ccc(NC(=O)Nc3ccc(Cl)c(C(F)(F)F)c3)cc2)ccn1` [sorafenib], in the series on skin, the alopecia is recorded as 15%, the folliculitis is 38%, the “hand-foot syndrome (palmopantar erythrodysesthesia)” value is given as 42% and the nail alterations is given as 14%. Moreover, in the series on skin, the pruritus is 36%, the skin rash was 46% and the stomatitis was 16%.
For the compound `COc1cc2ncnc(Nc3ccc(F)c(Cl)c3)c2cc1OCCCN1CCOCC1` [Gefitinib, gefitinib], in series [6], the response rates is given as 60-70%.
`C#Cc1cccc(Nc2ncnc3cc(OCCOC)c(OCCOC)cc23)c1` [erlotinib]: in series [6], the response rates is recorded as 60-70%.
Turning to `OC[C@H]1O[C@@H](Oc2cc(O)cc(/C=C/c3ccc(O)cc3)c2)[C@H](O)[C@@H](O)[C@@H]1O` [polydatin, 3,4,5'-trihydroxystilbene-3-β-mono-d-glucoside], the “patients who had to discontinue therapy due to toxicity of the antitumor drug” value in series [7] (1.5% polydatin cream prophylaxis, afatinib 40 mg/day, n = 34) is recorded as “no patient; also recorded: no suspension of treatment”. In addition, in series [7] (setting [10]), the “Incidence of skin rash, All grades (%)” value worked out at 41.2%; the “Incidence of skin rash, Grade 1 (%)” value was found to be 20.6%; the “Incidence of skin rash, Grade 2 (%)” value came out at 20.6%; the “Incidence of skin rash, Grade 3 (%)” value came to 0%. Besides, in series [7] (Females, afatinib 40 mg/day), the “Incidence of skin rash, All grades (%)” value came out at 23.5%; the “Incidence of skin rash, Grade 1 (%)” value came out at 5.9%; the “Incidence of skin rash, Grade 2 (%)” value was determined as 8.6%; the “Incidence of skin rash, Grade 3 (%)” value was determined as 0%. In series [7] (Males, afatinib 40 mg/day), the “Incidence of skin rash, All grades (%)” value was 17.6%; the “Incidence of skin rash, Grade 1 (%)” value worked out at 14.7%; the “Incidence of skin rash, Grade 2 (%)” value is listed as 12%; the “Incidence of skin rash, Grade 3 (%)” value amounted to 0%. Moreover, the “patients who had to reduce the dose for the cutaneous toxicity of the drug” value in series [7] (prophylaxis with polydatin, afatinib, n = 34) is listed as “no patient”. Further, the “patients who had to reduce the dose of afatinib from 40 to 30 mg/day due to intestinal toxicity (%)” value in series [7] (prophylaxis with polydatin, n = 34) came to 35.3%.

These data come from patent publication EP3654984B1, “TOPICAL TREATMENT FOR PREVENTING AND MITIGATING SKIN CYTOTOXICITY DUE TO THERAPY WITH TYROSINE KINASE INHIBITORS” (EUCARE S.R.L., priority 2017, dated 2019).
